According to patent US20020183309A1, “Novel amines as histamine-3 receptor ligands and their therapeutic applications” (priority 2001, published 2002):

What follows are compounds tested against T1, histamine-3 receptors (H3 receptor) (Rattus norvegicus, UniProt Q9QYN8) (assay: (3H)-N-α-methylhistamine binding to rat cortical membranes). Conditions: not given.
T1 construct: from tissue; host or cells: male Sprague-Dawley rat brain cortex membranes
Protocol: Briefly, male Sprague-Dawley rat brain cortices were homogenized (1 g tissue/10 mL buffer) in 50 mM Tris-HCl/5 mM EDTA containing protease inhibitor cocktail (Calbiochem) using a polytron set at 20,500 rpm. Homogenates were centrifuged for 20 minutes at 40,000×g. The supernatant was decanted, and pellets were weighed. The pellet was resuspended by polytron homogenization in 40 mL 50 mM Tris-HCl/5 mM EDTA with protease inhibitors and centrifuged for 20 minutes at 40,000×g. […] Rat cortical membranes (12 mg wet weight/tube) were incubated with (^3H)-N-α-methylhistamine (˜0.6 nM) with or without H3 receptor antagonists in a total incubation volume of 0.5 mL of 50 mM Tris-HCl/5 mM EDTA (pH 7.7). Test compounds were dissolved in DMSO to provide a 20 mM solution, serially diluted and then added to the incubation mixtures prior to initiating the incubation assay by addition of the membranes. Thioperamide (3 μM) was used to determine nonspecific binding. Binding incubations were conducted for 30 minutes at 25° C. and terminated by addition of 2 mL of ice cold 50 mM Tris-HCl (pH 7.7) and filtration through 0.3% polyethylenimine-soaked Unifilter plates (Packard). These filters were washed 4 additional times with 2 mL of ice-cold 50 mM Tris-HCl and dried for 1 hour. Radioactivity was determined using liquid scintillation counting techniques. Results were analyzed by Hill transformation and Ki values were determined using the Cheng-Prusoff equation.

T1 sequence (Q9QYN8 whole entry): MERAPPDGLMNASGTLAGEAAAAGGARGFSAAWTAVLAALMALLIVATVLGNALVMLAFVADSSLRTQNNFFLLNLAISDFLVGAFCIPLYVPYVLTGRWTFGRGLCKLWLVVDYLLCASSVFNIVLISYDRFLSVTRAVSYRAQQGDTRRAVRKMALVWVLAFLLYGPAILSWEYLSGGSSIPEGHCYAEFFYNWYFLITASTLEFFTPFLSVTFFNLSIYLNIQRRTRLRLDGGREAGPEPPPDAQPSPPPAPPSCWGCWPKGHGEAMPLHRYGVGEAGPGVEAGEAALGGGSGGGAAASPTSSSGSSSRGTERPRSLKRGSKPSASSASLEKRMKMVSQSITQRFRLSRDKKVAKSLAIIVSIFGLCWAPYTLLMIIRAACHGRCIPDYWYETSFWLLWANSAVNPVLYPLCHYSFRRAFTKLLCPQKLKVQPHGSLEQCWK

SMILES | Ki [nM]
CN(C)[C@@H]1CCN(CCc2cc3cc(-c4ccc(C#N)cc4)ccc3o2)C1 [Example 66, 4-(2-{2-[(3R)-3-(dimethylamino)pyrrolidinyl]ethyl}-1-benzofuran-5-yl)benzonitrile] | 90.4

Same assay, conditions: male Sprague-Dawley rat brain cortical membranes; (3H)-N-α-methylhistamine ~0.6 nM; 30 minutes at 25° C.; Cheng-Prusoff equation; read-out: Ki

Ki [nM] | SMILES
55.4 | O=C(c1ccc(-c2ccc3oc(CCN4CC[C@@H](O)C4)cc3c2)cc1)N1CCOCC1 [Example 27, (3R)-1-(2-{5-[4-(4-morpholinylcarbonyl)phenyl]-1-benzofuran-2-yl}ethyl)-3-pyrrolidinol]
265 | O=C(c1ccc(-c2ccc3oc(CCN4CCOCC4)cc3c2)cc1)N1CCOCC1 [Example 32, 4-(4-{2-[2-(4-morpholine)ethyl]-1-benzofuran-5-yl}benzoyl)morpholine]
32.3 | O=C(c1ccc(-c2ccc3oc(CCN4CC=CCC4)cc3c2)cc1)N1CCOCC1 [Example 33, 4-(4-{2-[2-(3,6-dihydro-1(2H)-pyridinyl)ethyl]-1-benzofuran-5-yl}benzoyl)morpholine]
67.9 | CN(CCc1cc2cc(-c3ccc(C(=O)N4CCOCC4)cc3)ccc2o1)C(C)(C)C [Example 35, N-(tert-butyl)-N-methyl-N-(2-{5-[4-(4-morpholinylcarbonyl)phenyl]-1-benzofuran-2-yl}ethyl)amine]
52.1 | CC(C)N(C)CCc1cc2cc(-c3ccc(C(=O)N4CCOCC4)cc3)ccc2o1 [Example 36, N-isopropyl-N-methyl-N-(2-{5-[4-(4-morpholinylcarbonyl)phenyl]-1-benzofuran-2-yl}ethyl)amine]
248 | CC(C)CN(C)CCc1cc2cc(-c3ccc(C(=O)N4CCOCC4)cc3)ccc2o1 [Example 37, N-isobutyl-N-methyl-N-(2-{5-[4-(4-morpholinylcarbonyl)phenyl]-1-benzofuran-2-yl}ethyl)amine]
26 | CCN(CCc1cc2cc(-c3ccc(C(=O)N4CCOCC4)cc3)ccc2o1)C(C)C [Example 38, N-ethyl-N-isopropyl-N-(2-{5-[4-(4-morpholinylcarbonyl)phenyl]-1-benzofuran-2-yl}ethyl)amine]
148 | CN(C)CCc1cc2cc(-c3ccc(C(=O)N4CCOCC4)cc3)ccc2o1 [Example 39, N,N-dimethyl-N-(2-{5-[4-(4-morpholinylcarbonyl)phenyl]-1-benzofuran-2-yl}ethyl)amine]
32.2 | CCCN(CC)CCc1cc2cc(-c3ccc(C(=O)N4CCOCC4)cc3)ccc2o1 [Example 40, N-ethyl-N-(2-{5-[4-(4-morpholinylcarbonyl)phenyl]-1-benzofuran-2-yl}ethyl)-N-propylamine]
51.5 | Cc1c(CCN2CCCC2)c(=O)oc2ccc(-c3ccc(C#N)cc3)cc12 [Example 41, 4-{4-methyl-2-oxo-3-[2-(1-pyrolidinyl)ethyl]-2H-chromen-6-yl}benzonitrile]
41.8 | Cc1c(CCN2CCCCC2)c(=O)oc2ccc(-c3ccc(C#N)cc3)cc12 [Example 42, 4-{4-methyl-2-oxo-3-[2-(1-piperidinyl)ethyl]-2H-chromen-6-yl}benzonitrile]
14.6 | CCN(CC)CCc1c(C)c2cc(-c3ccc(C#N)cc3)ccc2oc1=O [Example 43, 4-{3-[2-(diethylamino)ethyl]-4-methyl-2-oxo-2H-chromen-6-yl}benzonitrile]
17.2 | O=C(c1ccc(-c2ccc3oc(CCN4CCCC4)cc3c2)nc1)N1CCOCC1 [Example 44, 4-[(6-{2-[2-(1-pyrrolidinyl)ethyl]-1-benzofuran-5-yl}-3-pyridinyl)carbonyl]morpholine]
18.5 | O=C(c1ccc(-c2ccc3oc(CCN4CCCCC4)cc3c2)nc1)N1CCOCC1 [Example 46, 4-[(6-{2-[2-(1-piperidinyl)ethyl]-1-benzofuran-5-yl}-3-pyridinyl)carbonyl]morpholine]
59.8 | CCN(CC)CCc1cc2cc(-c3ccc(C(=O)N4CCOCC4)cn3)ccc2o1 [Example 47, 4-[(6-{2-[2-(N,N-diethyl)ethyl]-1-benzofuran-5-yl}-3-pyridinyl)carbonyl]morpholine]
14.4 | C[C@@H]1CC[C@@H](C)N1CCc1cc2cc(-c3ccc(C(=O)N4CCOCC4)cn3)ccc2o1 [Example 49, 4-{[6-(2-{2-[(2R,5R)-2,5-dimethylpyrrolidinyl]ethyl}-1-benzofuran-5-yl)-3-pyridinyl]carbonyl}morpholine]
3.07 | O=C(c1ccc(-c2ccc3oc(CCN4CCCCCC4)cc3c2)nc1)N1CCOCC1 [Example 51, 4-{[6-(2-{2-[1-azepanyl]ethyl}-1-benzofuran-5-yl)-3-pyridinyl]carbonyl}morpholine]
162 | CC1CCN(CCc2cc3cc(-c4ccc(C(=O)N5CCOCC5)cn4)ccc3o2)CC1 [Example 52, 4-[(6-{2-[2-(4-methyl-1-piperidinyl)ethyl]-1-benzofuran-5-yl}-3-pyridinyl)carbonyl]morpholine]

Ki [nM] | SMILES
242 | O=C(c1ccc(-c2ccc3oc(CCN4CCOCC4)cc3c2)nc1)N1CCOCC1 [Example 53, 4-[(6-{2-[2-(4-morpholinyl)ethyl]-1-benzofuran-5-yl}-3-pyridinyl)carbonyl]morpholine]
197 | CN(CCc1cc2cc(-c3ccc(C(=O)N4CCOCC4)cn3)ccc2o1)C(C)(C)C [Example 54, N-(tert-butyl)-N-methyl-N-(2-{5-[5-(4-morpholinylcarbonyl)-2-pyridinyl]-1-benzofuran-2-yl}ethyl)amine]
575 | CC(C)CN(C)CCc1cc2cc(-c3ccc(C(=O)N4CCOCC4)cn3)ccc2o1 [Example 55, N-isobutyl-N-methyl-N-(2-{5-[5-(4-morpholinylcarbonyl)-2-pyridinyl]-1-benzofuran-2yl}ethyl)amine]
105 | CC(C)N(C)CCc1cc2cc(-c3ccc(C(=O)N4CCOCC4)cn3)ccc2o1 [Example 56, N-isopropyl-N-methyl-N-(2-{5-[5-(4-morpholinylcarbonyl)-2-pyridinyl]-1-benzofuran-2-yl}ethyl)amine]
115 | CCN(CCc1cc2cc(-c3ccc(C(=O)N4CCOCC4)cn3)ccc2o1)C(C)C [Example 57, N-ethyl-N-isopropyl-N-(2-{5-[5-(4-morpholinylcarbonyl)-2-pyridinyl]-1-benzofuran-2-yl}ethyl)amine]
133 | CN(C)CCc1cc2cc(-c3ccc(C(=O)N4CCOCC4)cn3)ccc2o1 [Example 58, N,N-dimethyl-N-(2-{5-[5-(4-morpholinylcarbonyl)-2-pyridinyl]-1-benzofuran-2-yl}ethyl)amine]
79.1 | CCCN(CC)CCc1cc2cc(-c3ccc(C(=O)N4CCOCC4)cn3)ccc2o1 [Example 59, N-ethyl-N-propyl-N-(2-{5-[5-(4-morpholinylcarbonyl)-2-pyridinyl]-1-benzofuran-2-yl}ethyl)amine]
1000 | O=C(c1ccc(-c2ccc3oc(CCN4CCC5(CC4)OCCO5)cc3c2)nc1)N1CCOCC1 [Example 60, 8-(2-{5-[5-(4-morpholinylcarbonyl)-2-pyridinyl]-1-benzofuran-2-yl}ethyl)-1,4-dioxa-8-azaspiro[4.5]decane]
143 | O=C(c1ccc(-c2ccc3oc(CCN4CC5CC4CO5)cc3c2)nc1)N1CCOCC1 (stereo not drawn) [Example 61, 5-(2-{5-[5-(4-morpholinylcarbonyl)-2-pyridinyl]-1-benzofuran-2-yl}ethyl)-2-oxa-5-azabicyclo[2.2.1]heptane]
1000 | C=CCNCCc1cc2cc(-c3ccc(C(=O)N4CCOCC4)cn3)ccc2o1 [Example 63, N-allyl-N-(2-{5-[5-(4-morpholinylcarbonyl)-2-pyridinyl]-1-benzofuran-2-yl}ethyl)amine]
1000 | O=C(c1ccc(-c2ccc3oc(CCNCCCO)cc3c2)nc1)N1CCOCC1 [Example 64, 3-[(2-{5-[5-(4-morpholinylcarbonyl)-2-pyridinyl]-1-benzofuran-2-yl}ethyl)amino]-1-propanol]
596 | CCCNCCc1cc2cc(-c3ccc(C(=O)N4CCOCC4)cn3)ccc2o1 [Example 65, N-(2-{5-[5-(4-morpholinylcarbonyl)-2-pyridinyl]-1-benzofuran-2-yl}ethyl)-N-propylamine]
2 | C[C@@H]1CCCN1CCc1cc2cc(C(=O)c3cccc(Cl)c3)ccc2o1 [Example 71, (3-chlorophenyl)(2-{2-[(2R)-2-methyl-1-pyrrolidinyl]ethyl}-1-benzofuran-5-yl)methanone]
2.9 | COc1ccc(C(=O)c2ccc3oc(CCN4CCC[C@H]4C)cc3c2)cc1 [Example 73, (4-methoxyphenyl)(2-{2-[(2R)-2-methyl-1-pyrrolidinyl]ethyl}-1-benzofuran-5-yl)methanone]
9.9 | C[C@@H]1CCCN1CCc1cc2cc(C(=O)C3CC3)ccc2o1 [Example 75, cyclopropyl(2-{2-[(2R)-2-methyl-1-pyrrolidinyl]ethyl}-1-benzofuran-5-yl)methanone]
4 | CCC(CC)CC(=O)c1ccc2oc(CCN3CCC[C@H]3C)cc2c1 [Example 76, 3-ethyl-1-(2-{2-[(2R)-2-methyl-1-pyrrolidinyl]ethyl}-1-benzofuran-5-yl)-1-pentanone]
6 | Cc1cc(C(=O)c2ccc3oc(CCN4CCC[C@H]4C)cc3c2)ccc1Cl [Example 77, (4-chloro-3-methylphenyl)(2-{2-[(2R)-2-methyl-1-pyrrolidinyl]ethyl}-1-benzofuran-5-yl)methanone]
